# Test results taken from patent US9029378B2, “Substituted bicyclic aromatic carboxamide and urea compounds as vanilloid receptor ligands” (Gruenenthal GmbH, priority 2011, dated 2015).
# Target: T1, vanilloid receptor 1 (VR1/TRPV1 receptor) (Homo sapiens, UniProt Q8NER1)
# T1 construct: expressed in transfected cells; host or cells: CHO K1
# Assay: Functional testing on the vanilloid receptor 1 (FLIPR Ca2+ influx assay, capsaicin)
# Format: cell-based, human being
# Parameters: key to (f) (human being) Cap: effect in words (agonist / no effect): AG=agonist; NE=no effect
# Details: @5 μM; Cap=capsaicin; read-out: inhibition (as a percentage), (f) (human being) Cap
# Description: Furthermore, preference may be given to compounds according to the invention that cause a 50 percent displacement of capsaicin, which is present at a concentration of 100 nM, in a FLIPR assay with CHO K1 cells which were transfected with the human VR1 gene at a concentration of less than 2,000 nM, preferably less than 1,000 nM, particularly preferably less than 300 nM, most particularly preferably less than 100 nM, even more preferably less than 75 nM, additionally preferably less than 50 nM, most preferably less than 10 nM.
# In the process, the Ca^2+ influx is quantified in the FLIPR assay with the aid of a Ca^2+-sensitive dye (type Fluo-4, Molecular Probes Europe BV, Leiden, the Netherlands) in a fluorescent imaging plate reader (FLIPR, Molecular Devices, Sunnyvale, USA), as described hereinafter.
# Pharmacological Methods I. Functional Testing Carried Out on the Vanilloid Receptor 1 (VR1/TRPV1 Receptor) […]
# The number of cells in the suspension is set to 3×10^5 per mL and 150 μL of this suspension are in each case introduced into a recess in the cell culture plates coated as described hereinbefore. In the incubator the plates are left for two to three days at 37° C., 5% by volume of CO2 and 95% relative humidity. Subsequently, the cells are loaded with 2 μM of Fluo-4 and 0.01% by volume of Pluronic F127 (Molecular Probes Europe BV, Leiden, the Netherlands) in HBSS buffer (Hank's buffered saline solution, Gibco Invitrogen GmbH, Karlsruhe, Germany) for 30 min at 37° C., washed 3 times with HBSS buffer and after further incubation for 15 minutes at room temperature used for Ca^2+ measurement in a FLIPR assay. The Ca^2+-dependent fluorescence is in this case measured before and after the addition of substances (λex=488 nm, λem=540 nm). Quantification is carried out by measuring the highest fluorescence intensity (FC, fluorescence counts) over time.
# The FLIPR protocol consists of 2 substance additions. First the compounds to be tested (10 μM) are pipetted onto the cells and the Ca^2+ influx is compared with the control (capsaicin 10 μM). This provides the result in % activation based on the Ca^2+ signal after the addition of 10 μM of capsaicin (CP). After 5 minutes' incubation, 100 nM of capsaicin are applied and the Ca^2+ influx is also determined.
# Desensitising agonists and antagonists lead to suppression of the Ca^2+ influx. The % inhibition is calculated compared to the maximum achievable inhibition with 10 μM of capsazepine. Triple analyses (n=3) are carried out and repeated in at least 3 independent experiments (N=4). Starting from the percentage displacement caused by different concentrations of the compounds to be tested of general formula I, IC50 inhibitory concentrations which cause a 50-percent displacement of capsaicin were calculated. Ki values for the test substances were obtained by conversion by means of the Cheng-Prusoff equation (Cheng, Prusoff; Biochem. Pharmacol. 22, 3099-3108, 1973).
# The affinity of the compounds of to the invention for the vanilloid receptor 1 (VR1/TRPV1 receptor) was determined as described hereinbefore (pharmacological method I). The compounds of the invention display outstanding affinity to the VR1/TRPV1 receptor (Table 2). In Table 2 the abbreviations below have the following meanings: • Cap=capsaicin • AG=agonist • NE=no effect
# The value after the “@” symbol indicates the concentration at which the inhibition (as a percentage) was respectively determined.
# T1 sequence (Q8NER1 whole entry): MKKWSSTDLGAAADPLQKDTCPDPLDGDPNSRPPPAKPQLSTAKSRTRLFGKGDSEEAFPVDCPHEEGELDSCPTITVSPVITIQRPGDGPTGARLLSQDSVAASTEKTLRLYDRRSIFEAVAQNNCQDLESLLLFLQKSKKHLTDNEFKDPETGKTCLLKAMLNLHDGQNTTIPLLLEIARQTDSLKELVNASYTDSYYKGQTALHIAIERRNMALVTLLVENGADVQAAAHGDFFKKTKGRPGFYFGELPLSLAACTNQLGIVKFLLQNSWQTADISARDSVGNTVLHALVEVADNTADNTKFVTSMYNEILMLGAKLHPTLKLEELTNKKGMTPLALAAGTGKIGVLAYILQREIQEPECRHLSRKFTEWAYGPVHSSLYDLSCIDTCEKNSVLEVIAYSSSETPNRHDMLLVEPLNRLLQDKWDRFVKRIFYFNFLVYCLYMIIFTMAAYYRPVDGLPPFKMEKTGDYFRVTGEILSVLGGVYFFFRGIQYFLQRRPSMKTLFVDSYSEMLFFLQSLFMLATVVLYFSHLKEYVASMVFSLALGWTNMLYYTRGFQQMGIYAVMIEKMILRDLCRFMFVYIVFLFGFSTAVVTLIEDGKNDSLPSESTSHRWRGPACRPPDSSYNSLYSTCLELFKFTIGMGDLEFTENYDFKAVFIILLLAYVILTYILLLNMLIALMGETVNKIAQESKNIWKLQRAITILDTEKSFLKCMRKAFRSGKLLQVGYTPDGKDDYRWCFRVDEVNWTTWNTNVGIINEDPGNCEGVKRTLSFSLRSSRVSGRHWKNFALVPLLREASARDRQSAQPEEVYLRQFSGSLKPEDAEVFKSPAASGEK
row,inhibition at 5 µM [%],SMILES
1,39,"CC1CCN(c2nc(C(F)(F)F)ccc2CNC(=O)Nc2cc3ccccc3cn2)CC1 [Example 21, 1-(Isoquinolin-3-yl)-3-((2-(4-methylpiperidin-1-yl)-6-(trifluoromethyl)pyridin-3-yl)methyl)urea]"
2,45,"Cc1cc(NC(=O)NCc2ccc(C(F)(F)F)nc2N2CCC(C)CC2)c2cn[nH]c2c1 [Example 56, 1-(6-Methyl-1H-indazol-4-yl)-3-((2-(4-methylpiperidin-1-yl)-6-(trifluoromethyl)pyridin-3-yl)methyl)urea]"

# Same assay, conditions: Cap=capsaicin
row,(f) (human being) Cap: effect in words (agonist / no effect),SMILES
1,NE,"CC1CCN(c2nc(C(F)(F)F)ccc2CNC(=O)Nc2nccc3ccccc23)CC1 [Example 20, 1-(Isoquinolin-1-yl)-3-((2-(4-methylpiperidin-1-yl)-6-(trifluoromethyl)pyridin-3-yl)methyl)urea]"
2,AG,"CC1CCN(c2nc(C(F)(F)F)ccc2CNC(=O)Nc2ccnc3ccccc23)CC1 [Example 17, 1-((2-(4-Methylpiperidin-1-yl)-6-(trifluoromethyl)pyridin-3-yl)methyl)-3-(quinolin-4-yl)urea]"
3,AG,"CC(=O)Nc1nc2cc(NC(=O)NCc3ccc(C(F)(F)F)nc3N3CCC(C)CC3)ccc2s1 [Example 31, N-(5-(3-((2-(4-methylpiperidin-1-yl)-6-(trifluoromethyl)pyridin-3-yl)methyl)ureido)benzo[d]thiazol-2-yl)acetamide]"

# Same assay, conditions: Cap=capsaicin (100 nM); Ki from IC50 by Cheng-Prusoff equation; read-out: (f) Ki (human being) [nM] Cap
row,SMILES,Ki [nM]
1,"CC1CCN(c2nc(C(F)(F)F)ccc2CNC(=O)Nc2ccc3cncnc3c2)CC1 [Example 91, 1-((2-(4-Methylpiperidin-1-yl)-6-(trifluoromethyl)pyridin-3-yl)methyl)-3-(quinazolin-7-yl)urea]",8
2,"CC1CCN(c2nc(C(F)(F)F)ccc2CNC(=O)Nc2cc(F)cc3[nH]ncc23)CC1 [Example 51, 1-(6-Fluoro-1H-indazol-4-yl)-3-((2-(4-methylpiperidin-1-yl)-6-(trifluoromethyl)pyridin-3-yl)methyl)urea]",3
3,"CC1CCN(c2nc(C(F)(F)F)ccc2CNC(=O)C(C)c2ccnc3[nH]ncc23)CC1 (stereo not shown) [Example 8, N-((2-(4-Methylpiperidin-1-yl)-6-(trifluoromethyl)pyridin-3-yl)methyl)-2-(1H-pyrazolo[3,4-b]pyridin-4-yl)propanamide]",2
4,"O=C(NCc1ccc(C(F)(F)F)nc1SC1CCCCC1)Nc1ccc2cccnc2c1 [Example 71, 1-((2-(Cyclohexylthio)-6-(trifluoromethyl)pyridin-3-yl)methyl)-3-(quinolin-7-yl)urea]",5
5,"Cc1[nH]c2c(NC(=O)NCc3ccc(C(F)(F)F)nc3N3CCC(C)CC3)cccc2c1C [Example 37, 1-(2,3-Dimethyl-1H-indol-7-yl)-3-((2-(4-methylpiperidin-1-yl)-6-(trifluoromethyl)pyridin-3-yl)methyl)urea]",4
6,"CC1CCN(c2nc(C(F)(F)F)ccc2CNC(=O)Nc2cccc3[nH]ccc23)CC1 [Example 38, 1-(1H-Indol-4-yl)-3-((2-(4-methylpiperidin-1-yl)-6-(trifluoromethyl)pyridin-3-yl)methyl)urea]",1
7,"CCCCOc1nc(C(F)(F)F)ccc1CNC(=O)Nc1cccc2c1cnn2C [Example 47, 1-((2-Butoxy-6-(trifluoromethyl)pyridin-3-yl)methyl)-3-(1-methyl-1H-indazol-4-yl)urea]",3
8,"Cc1ccc2cc(NC(=O)NCc3ccc(C(F)(F)F)nc3N3CCC(C)CC3)ccc2n1 [Example 70, 1-((2-(4-Methylpiperidin-1-yl)-6-(trifluoromethyl)pyridin-3-yl)methyl)-3-(2-methylquinolin-6-yl)urea]",68
9,"CC(C(=O)NCc1ccc(C(F)(F)F)nc1SC1CCCCC1)c1cnc2ccccc2c1 (stereo not shown) [Example 15, N-((2-(Cyclohexylthio)-6-(trifluoromethyl)pyridin-3-yl)methyl)-2-(quinolin-3-yl)propanamide]",50
10,"CC1CCN(c2nc(C(F)(F)F)ccc2CNC(=O)Nc2ccc3cnn(C)c3c2)CC1 [Example 27, 1-(1-Methyl-1H-indazol-6-yl)-3-((2-(4-methylpiperidin-1-yl)-6-(trifluoromethyl)pyridin-3-yl)methyl)urea]",7
11,"CCCCOc1nc(C(F)(F)F)ccc1CNC(=O)Nc1cccc2ncccc12 [Example 67, 1-((2-Butoxy-6-(trifluoromethyl)pyridin-3-yl)methyl)-3-(quinolin-5-yl)urea]",2
12,"CN(C)C1(c2ccccc2)CCN(c2nc(C(F)(F)F)ccc2CNC(=O)Nc2cccc3cnccc23)CC1 [Example 77, 1-((2-(4-(Dimethylamino)-4-phenylpiperidin-1-yl)-6-(trifluoromethyl)pyridin-3-yl)methyl)-3-(isoquinolin-5-yl)urea]",4
13,"Cc1nc2ccc(NC(=O)NCc3ccc(C(F)(F)F)nc3N3CCC(C)CC3)cc2s1 [Example 33, 1-(2-Methylbenzo[d]thiazol-6-yl)-3-((2-(4-methylpiperidin-1-yl)-6-(trifluoromethyl)pyridin-3-yl)methyl)urea]",4
14,"CC1CCN(c2nc(C(F)(F)F)ccc2CNC(=O)Nc2cccc3c(O)ncnc23)CC1 [Example 89, 1-(4-Hydroxyquinazolin-8-yl)-3-((2-(4-methylpiperidin-1-yl)-6-(trifluoromethyl)pyridin-3-yl)methyl)urea]",17

# The remaining lines, values ahead:
row,Ki [nM],SMILES
1,2,"Cn1ncc2c(NC(=O)NCc3ccc(C(F)(F)F)nc3OCC3CCC3)cccc21 [Example 48, 1-((2-(Cyclobutylmethoxy)-6-(trifluoromethyl)pyridin-3-yl)methyl)-3-(1-methyl-1H-indazol-4-yl)urea]"
2,1,"CC1CCN(c2cc(C(F)(F)F)ccc2CNC(=O)Nc2cc(F)cc3[nH]ncc23)CC1 [Example 53, 1-(6-Fluoro-1H-indazol-4-yl)-3-(2-(4-methylpiperidin-1-yl)-4-(trifluoromethyl)benzyl)urea]"
3,4,"CC(C)Oc1nc(C(F)(F)F)ccc1CNC(=O)Nc1cccc2ncccc12 [Example 65, 1-((2-Isopropoxy-6-(trifluoromethyl)pyridin-3-yl)methyl)-3-(quinolin-5-yl)urea]"
4,8,"COc1nccc2c(NC(=O)NCc3ccc(C(F)(F)F)nc3N3CCC(C)CC3)cccc12 [Example 80, 1-(1-Methoxyisoquinolin-5-yl)-3-((2-(4-methylpiperidin-1-yl)-6-(trifluoromethyl)pyridin-3-yl)methyl)urea]"
5,2,"CC1CCN(c2nc(C(C)(C)C)ccc2CNC(=O)Nc2cc(F)cc3[nH]ncc23)CC1 [Example 52, 1-((6-Tert-butyl-2-(4-methylpiperidin-1-yl)pyridin-3-yl)methyl)-3-(6-fluoro-1H-indazol-4-yl)urea]"
6,7,"O=C(NCc1ccc(C(F)(F)F)cc1C1CCCC1)Nc1cc(F)cc2[nH]ncc12 [Example 54, 1-(2-Cyclopentyl-4-(trifluoromethyl)benzyl)-3-(6-fluoro-1H-indazol-4-yl)urea]"
7,1,"CC1CCN(c2nc(C(F)(F)F)ccc2CNC(=O)Nc2cccc3ncsc23)CC1 [Example 60, 1-(Benzo[d]thiazol-7-yl)-3-((2-(4-methylpiperidin-1-yl)-6-(trifluoromethyl)pyridin-3-yl)methyl)urea]"
8,3,"CC1CCN(c2nc(C(F)(F)F)ccc2CNC(=O)Nc2cccc3[nH]cnc23)CC1 [Example 58, 1-(1H-Benzo[d]imidazol-4-yl)-3-((2-(4-methylpiperidin-1-yl)-6-(trifluoromethyl)pyridin-3-yl)methyl)urea]"
9,2,"CC1CCN(c2nc(C(F)(F)F)ccc2CNC(=O)Nc2cncc3ccccc23)CC1 [Example 18, 1-(Isoquinolin-4-yl)-3-((2-(4-methylpiperidin-1-yl)-6-(trifluoromethyl)pyridin-3-yl)methyl)urea]"
